Patent US6331555A, “Treatment of platelet derived growth factor related disorders such as cancers” (priority 1999, dated 2001)
Blank lines part the entries; values can stand above or below the compound they belong to.

Key:
WEHI-164.13 cells = test: CTL generation in tumor-bearing mice (MLTC); type: in vivo, mouse; parameters: CTL activity: key to the marks not given beside the values; conditions: 20 mg/kg/day
Method: BALB/c mice received SC implants of syngeneic WEHI-164.13 fibrosarcoma cells on day 0. […] On day 17, the animals were sacrificed and their spleens were removed. The spleen cells were assayed in vitro for responses to alloantigens and mitogens.
The spleen cells were also assayed for the generation of WEHI-164.13-specific cytotoxic T-lymphocytes (CTL) in the mixed lymphocyte tumor cell culture (MLTC). Spleen cells from untreated tumor-bearing animals mounted a vigorous CTL response (44% specific lysis at E:T=50:1). This response was inhibited almost completely in animals receiving the vehicle alone (13% specific lysis). […] (Walia, et al., Proc. Soc. Exp. Biol. Med., 192:177-200, 1989.)

HER2 = test: Receptor tyrosine kinase inhibition, HER2; type: cell-based; conditions: for IC50: read-out: HER2 IC50
Method: (§1) For western blotting, cells were plated in 2 mL growth medium into 6-well dishes (500,000 cells per well) and allowed to attach overnight. The medium was replaced with 2 mL MCDB 105 (UCSF Cell Culture Facility) supplemented with 1% FBS. The plates were then incubated overnight at 37° C., ambient CO2. […] After a 7 min incubation at room temperature with ligand, the plates were put on ice and washed three times with 1 mL ice-cold PBS plus 1 mM orthovanadate. Lysis was achieved by pipetting cells in 0.5 mL of buffer containing 50 mM Tris, pH 7.4, 10% glycerol, 1% NP-40, 2 mM EDTA, 1 mM sodium vanadate (Na3 VO4), 10 mM pyrophosphate, 1 mM PMSF, […]. A 300 μL aliquot of each lysate was immediately added to 100 μL 4×Laemmli sample buffer ([…] Tris pH 6.9, 20% glycerol, 7% SDS, 5 mM EDTA, 5% β-mercaptoethanol) containing phosphatase inhibitors, 2 mM Na3 VO4 and 10 mM pyrophosphate. Samples were boiled for 5 min, frozen in dry ice-ethanol, and stored at -80° C. Proteins were resolved by SDS-PAGE (Bio-Rad Miniprotean II) and transferred to nitrocellulose membrane (Schleicher & Schuell) at 120 volts for 1 hr at room temperature in buffer containing 25 mM Tris pH 8.3, 20% methanol, 0.2 M glycine, 0.1% SDS. The integrity of the protein-to-membrane transfer was determined by staining with 1% Ponceau S in 5% acetic acid for 5 min. After destaining in several distilled water rinses, the membrane was soaked overnight in blocking buffer containing 5% milk in Tris-buffered saline, 0.05% Tween 20. Phosphotyresine was detected by incubating the membrane (1 hr at room temperature) with an anti-phosphotyosine antiserum diluted in blocking buffer at 1:3000. For C6 cells, PDGF-β receptor content in the lysates was confirmed in duplicate sample lanes by western blotting using an antibody specific for PDGF-β receptor (UBI). The antibodies were visualized using ECL reagent from Amersham and by exposure to Fuji RX film.
For ELISA assays, cells were grown to 80-90% confluency in growth medium and seeded in 96-well tissue culture plates in 0.5% serum at 25,000 to 30,000 cells per well. After overnight incubation in 0.5% serum-containingmedium, cells were changed to serum-free medium and treated with test compound for 2 hr in a 5% CO2, 37° C. incubator. Cells were then stimulated with ligand for 5-10 min followed by lysis with HNTG (20 mM Hepes, 150 mM NaCl, 10% glycerol, 5 mM EDTA, 5 mM Na3 VO4 0.2% Triton X-100, and 2 mM NaPyr). Cell lysates (0.5 mg/well in PBS) were transferred to ELISA plates previously coated with receptor-specific antibody and which had been blocked with 5% milk in TBST (50 mM Tris-HCl pH 7.2, 150 mM NaCl and 0.1% Triton X-100) at room temperature for 30 min. Lysates were incubated with shaking for 1 hr at room temperature. The plates were washed with TBST four times and then incubated with polyclonol anti-phosphotyrosine antibody at room temperature for 30 min. Excess anti-phosphotyrosine antibody was removed by rinsing the plate with TBST four times. Goat anti-rabbit IgG antibody was added to the ELISA plate for 30 min at room temperature followed by rinsing with TBST four more times.
(§2) The ability of different compound to inhibit different receptor tyrosine kinases was tested.

PDGFR = PDGFR (Homo sapiens, UniProt P09619); test: Receptor tyrosine kinase inhibition, PDGFR; type: cell-based; parameters: U1242 (PDGF-β receptor); host or cells: U1242 glioma cells (ELISA); conditions: read-out: PDGFR IC50
PDGFR, sequence (P09619 33-1106): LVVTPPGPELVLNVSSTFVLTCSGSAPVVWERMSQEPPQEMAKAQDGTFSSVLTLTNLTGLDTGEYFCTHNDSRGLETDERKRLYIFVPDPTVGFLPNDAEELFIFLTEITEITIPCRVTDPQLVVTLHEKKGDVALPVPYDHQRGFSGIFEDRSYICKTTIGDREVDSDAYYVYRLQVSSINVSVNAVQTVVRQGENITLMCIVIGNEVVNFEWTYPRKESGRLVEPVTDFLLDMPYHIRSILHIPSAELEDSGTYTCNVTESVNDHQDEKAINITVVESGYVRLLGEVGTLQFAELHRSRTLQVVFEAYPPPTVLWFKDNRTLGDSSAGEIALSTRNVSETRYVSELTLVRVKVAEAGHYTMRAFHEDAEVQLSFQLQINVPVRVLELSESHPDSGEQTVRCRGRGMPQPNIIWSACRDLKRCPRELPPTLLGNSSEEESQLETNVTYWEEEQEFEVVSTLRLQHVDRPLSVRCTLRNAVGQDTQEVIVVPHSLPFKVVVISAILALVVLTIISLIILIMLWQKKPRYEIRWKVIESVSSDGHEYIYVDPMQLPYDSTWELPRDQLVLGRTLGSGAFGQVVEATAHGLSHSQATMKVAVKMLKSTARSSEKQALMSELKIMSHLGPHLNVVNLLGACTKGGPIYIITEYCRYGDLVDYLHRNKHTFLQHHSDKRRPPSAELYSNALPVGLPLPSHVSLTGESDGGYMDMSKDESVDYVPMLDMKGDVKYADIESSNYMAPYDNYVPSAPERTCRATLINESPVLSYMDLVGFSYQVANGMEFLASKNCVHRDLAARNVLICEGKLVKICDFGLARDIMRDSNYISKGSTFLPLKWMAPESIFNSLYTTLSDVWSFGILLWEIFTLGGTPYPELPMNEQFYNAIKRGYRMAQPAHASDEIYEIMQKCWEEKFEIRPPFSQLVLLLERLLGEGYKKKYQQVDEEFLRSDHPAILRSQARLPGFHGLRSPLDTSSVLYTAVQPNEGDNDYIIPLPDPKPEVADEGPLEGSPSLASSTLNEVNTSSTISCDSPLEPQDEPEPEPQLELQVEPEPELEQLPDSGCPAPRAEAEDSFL
Method: as §1, with “The medium was replaced with 2 mL MCDB 105 (UCSF Cell Culture Facility) supplemented with 1% FBS.” left out, “Proteins were resolved by SDS-PAGE (Bio-Rad Miniprotean II) and transferred to nitrocellulose membrane (Schleicher & Schuell) at 120 volts for 1 hr at room temperature in buffer containing 25 mM Tris pH 8.3, 20% methanol, 0.2 M glycine, 0.1% SDS.” left out, “For C6 cells, PDGF-β receptor content in the lysates was confirmed in duplicate sample lanes by western blotting using an antibody specific for PDGF-β receptor (UBI).” left out
For ELISA assays, cells were grown to 80-90% confluency in growth medium and seeded in 96-well tissue culture plates in 0.5% serum at 25,000 to 30,000 cells per well. After overnight incubation in 0.5% serum-containingmedium, cells were changed to serum-free medium and treated with test compound for 2 hr in a 5% CO2, 37° C. incubator. […] Lysates were incubated with shaking for 1 hr at room temperature. The plates were washed with TBST four times and then incubated with polyclonol anti-phosphotyrosine antibody at room temperature for 30 min. Excess anti-phosphotyrosine antibody was removed by rinsing the plate with TBST four times. Goat anti-rabbit IgG antibody was added to the ELISA plate for 30 min at room temperature followed by rinsing with TBST four more times.
as §2

LD10 = conditions: in vivo

SMILES: Cc1oncc1C(=O)Nc1ccc(C(F)(F)F)cc1 [Compound A10, 5-methylisoxazole-4 carboxylic acid-(4-trifluromethyl)-anilide]
CTL response, specific lysis (WEHI-164.13 cells; vehicle 13%, untreated 44%): 78%
CTL activity (WEHI-164.13 cells; Tumor stimulus): ++
HER2 phosphorylation (HER2): little if any effect on EGF-receptor or HER2 phosphorylation

SMILES: COc1cc2ncc(-c3ccccc3)nc2cc1OC [Compound G14]
HER2 phosphorylation (HER2): do not effect EGF or HER2 phosphorylation

SMILES: Cc1cc2ncc(-c3ccccc3)nc2cc1C [Compound G13]
HER2 phosphorylation (HER2): do not effect EGF or HER2 phosphorylation
IC50 (HER2): > 50 µM

IC50 (PDGFR): 47 µM
IC50 (HER2): > 50 µM
SMILES: N#CC(=Cc1c[nH]c2ccccc12)c1[nH]nc(N)c1C#N [Compound D14]
HER2 phosphorylation (HER2): do not effect EGF or HER2 phosphorylation

SMILES: c1ccc(-c2cnc3cc4ccccc4cc3n2)cc1 [Compound G22]
IC50 (PDGFR): 14 µM
LD10 (LD10): 25 mg/kg
IC50 (HER2): > 50 µM
